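Results reflect a 48-hour exposure of cells in 96-well plates to compound at five concentrations. TGI denotes the concentration required for complete inhibition of growth.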
Tests used:
Test in all cases: DTP human tumour cell line panel, 48 h
UO-31 renal = system: UO-31 renal
LOX IMVI melanoma = system: LOX IMVI melanoma
SF-295 CNS = system: SF-295 CNS
NCI-H522 lung = system: NCI-H522 lung
HOP-92 NSCLC = system: HOP-92 NSCLC
OVCAR-8 ovarian = system: OVCAR-8 ovarian
SNB-78 CNS = system: SNB-78 CNS
KM20L2 colon = system: KM20L2 colon
M19-MEL melanoma = system: M19-MEL melanoma
SF-539 CNS = system: SF-539 CNS
KM12 colon = system: KM12 colon
UACC-62 melanoma = system: UACC-62 melanoma
IGROV1 ovarian = system: IGROV1 ovarian
SW-620 colon = system: SW-620 colon
A549 NSCLC = system: A549 NSCLC
CAKI-1 renal = system: CAKI-1 renal
SNB-19 CNS = system: SNB-19 CNS
NCI-H23 lung = system: NCI-H23 lung
SN12C renal = system: SN12C renal
XF 498 CNS = system: XF 498 CNS
MOLT-4 leukemia = system: MOLT-4 leukemia
DMS 273 small cell lung = system: DMS 273 small cell lung
K-562 leukemia = system: K-562 leukemia
LXFL 529 NSCLC = system: LXFL 529 NSCLC
U251 CNS = system: U251 CNS
HOP-62 NSCLC = system: HOP-62 NSCLC
SK-MEL-28 melanoma = system: SK-MEL-28 melanoma
CCRF-CEM leukemia = system: CCRF-CEM leukemia
NCI-H226 lung = system: NCI-H226 lung
OVCAR-5 ovarian = system: OVCAR-5 ovarian
DLD-1 colon = system: DLD-1 colon
SK-MEL-2 melanoma = system: SK-MEL-2 melanoma
A498 renal = system: A498 renal
HT29 colon = system: HT29 colon
EKVX NSCLC = system: EKVX NSCLC
NCI-H460 lung = system: NCI-H460 lung
RXF 393 renal = system: RXF 393 renal
ACHN renal = system: ACHN renal
SF-268 CNS = system: SF-268 CNS
SR leukemia = system: SR leukemia
UACC-257 melanoma = system: UACC-257 melanoma
DMS 114 small cell lung = system: DMS 114 small cell lung
SK-MEL-5 melanoma = system: SK-MEL-5 melanoma
RXF-631 renal = system: RXF-631 renal
SK-OV-3 ovarian = system: SK-OV-3 ovarian
MALME-3M melanoma = system: MALME-3M melanoma
M14 melanoma = system: M14 melanoma
OVCAR-4 ovarian = system: OVCAR-4 ovarian
HL-60(TB) leukemia = system: HL-60(TB) leukemia
TK-10 renal = system: TK-10 renal
786-0 renal = system: 786-0 renal
HCC-2998 colon = system: HCC-2998 colon
HCT-116 colon = system: HCT-116 colon
HCT-15 colon = system: HCT-15 colon
SNB-75 CNS = system: SNB-75 CNS
RPMI-8226 leukemia = system: RPMI-8226 leukemia
COLO 205 colon = system: COLO 205 colon
OVCAR-3 ovarian = system: OVCAR-3 ovarian

Measured: TGI

O=c1[nH]c(=O)n(C2CC(O)C(CO)O2)cc1/C=C/Br (configuration not stated)
not listed: HCC-2998 colon | HCT-116 colon | HCT-15 colon | SNB-75 CNS | RPMI-8226 leukemia | COLO 205 colon | OVCAR-3 ovarian
> 100 µM: all other assays above

CCOC(=O)c1ccc(O)cc1
not listed: OVCAR-8 ovarian | SN12C renal | LXFL 529 NSCLC | A498 renal | SK-MEL-5 melanoma | OVCAR-3 ovarian
> 100 µM: all other assays above

CCOC(=O)c1ccc(N=Cc2ccc(N(CCC#N)CCC#N)cc2)cc1
not listed: KM12 colon | U251 CNS | SR leukemia | HCC-2998 colon
> 100 µM: all other assays above
